Measurements: patent US4963570A, “1-(acetylaminophenyl)-2-aminopropanone derivatives and pharmaceutical compositions thereof” (Laboratoire L. Lafon, priority 1983, dated 1990)
“Also recorded” adds a separate entry of the source. Where a name gives a salt, the structure may show the parent alone.

Legend:
rats [1] = assay: overall behavior and reactivities in rats; type: in vivo, rat; settings: i.p.
Procedure: (§1) Groups of three animals are observed before and then 0.25 hour, 0.50 hour, 1 hour, 2 hours, 3 hours and 24 hours after the administration of CRL 41 224.

mice [2] = assay: interaction with oxotremorine; type: in vivo, mouse
Procedure: CRL 41 224 is administered to groups of 6 mice 0.5 hour before the intraperitoneal injection of 0.5 mg/kg of oxotremorine.

CNS = assay: overall neuropsychopharmacological (CNS) profile; type: in vivo, mouse; rat; settings: i.p.
Procedure: The neuropsychopharmacological study of CRL 41 219 was carried out as indicated above for CRL 41 224.
The neuropsychopharmacological study of CRL 41 220 was carried out in accordance with the procedures given above for CRL 41 224.

mice [3] = assay: four plate test, traction and electric shock; type: in vivo, mouse; settings: mice, i.p.
Procedure: The test is performed on groups of 10 mice 30 minutes after the administration of CRL 41 224.

mice [4] = assay: action on the spontaneous motility (actimeter); type: in vivo, mouse; settings: mice, i.p.
Procedure: 0.5 hour after they have received CRL 41 224, the mice (6 per dose, 12 control animals) are placed in an actimeter, where their motility is recorded for 30 minutes.

male mice = assay: acute toxicity, intraperitoneal (lethal doses); type: in vivo, mouse; settings: i.p.
Procedure: By intraperitoneal administration to male mice, the LD-30 (lethal dose for 30% of the animals tested) is of the order of 128 mg/kg and the LD-50 is of the order of about 200 mg/kg.

mice [5] = assay: action on the behavioral despair; type: in vivo, mouse; settings: i.p.
Excerpt: Half an hour after they have received CRL 41 224, groups of 6 mice are placed in a beaker filled with water to a height of 6 cm. The total period of immobility between the 2nd and 6th minutes following immersion is noted.

immunological properties = assay: immunological properties, overall; type: in vivo; settings: dose not stated; dihydrochloride
Excerpt: The present 1-(acetylaminophenyl)-2-aminopropanone derivatives are useful in therapy. They all act on the CNS, more precisely as antidepressants. They have a stimulant or excitant component in their neuropsychopharmacological profile.

[6] = pH of the aqueous solution as a function of concentration; type: physicochemical
Procedure: The neuropsychopharmacological study of CRL 41 242 was carried out according to the procedures described above for CRL 41 224, except that the pH of the aqueous solution of CRL 41 242 to be injected intraperitoneally varies as a function of the concentration in the manner indicated in Table III below.

mice [7] = assay: asphyxiant anoxia (gallamine triiodoethylate); type: in vivo, mouse; settings: i.p.
Procedure: Groups of 10 mice receive CRL 41 224 half an hour before the intraperitoneal administration of 32 mg/kg of gallamine triiodoethylate (reference curarizing agent).

mice [8] = assay: interaction with barbital; type: in vivo, mouse; settings: i.p.
Procedure: Half an hour after the administration of CRL 41 224, groups of 10 mice receive an intraperitoneal injection of barbital (220 mg/kg).

mice [9] = assay: overall behavior and reactivities in mice; type: in vivo, mouse; settings: i.p.
Procedure: as §1

mice [10] = assay: action on the intergroup aggression; type: in vivo, mouse; settings: i.p.
Procedure: After they have stayed for 3 weeks in the 2 halves of a cage divided by an opaque partition, groups of 3 mice receive CRL 41 224. Half an hour later, the two groups from the same cage are brought together by removal of the partition, and the number of fights which occur in 10 minutes is noted. Half the test is performed on ordinary mice (NMRI, C.E.R. January) and half on NMRI (Iffa Credo) mice.

mice [11] = assay: interaction with reserpine; type: in vivo, mouse; settings: mice, i.p.
Procedure: Four hours after the intraperitoneal injection of 2.5 mg/kg of reserpine, groups of 6 mice receive CRL 41 224.

mice [12] = assay: motility reduced by habituation to the enclosure; type: in vivo, mouse; settings: i.p., 32 and 128 mg/kg
Procedure: After they have stayed in the actimeters for 18 hours, the mice (6 per dose, 12 control animals) receive CRL 41 224. They are immediately returned to their respective enclosures and, half an hour later, their motility is recorded for 30 minutes.

rats [13] = assay: interaction with apomorphine in rats; type: in vivo, rat; settings: i.p., 16 and especially 64 mg/kg, apomorphine 0.5 mg/kg s.c.
Procedure: CRL 41 224 is administered to groups of 6 rats 0.5 hour before the subcutaneous injection of 0.5 mg/kg of apomorphine.

mice [14] = assay: interaction with apomorphine in mice; type: in vivo, mouse; settings: mice, i.p., 8, 32 and 128 mg/kg; apomorphine 1 or 16 mg/kg s.c.
Procedure: Groups of 6 mice receive CRL 41 224 0.5 hour before the subcutaneous injection of 1 or 16 mg/kg of apomorphine.

[15] = system: peripheral α-adrenergic stimulation; assay: signs of peripheral adrenergic stimulation; type: in vivo, mouse; rat; settings: i.p.; dose not stated
Procedure: as §1

rats [16] = assay: interaction with amphetamine; type: in vivo, rat; settings: rats, i.p., 16 and especially 64 mg/kg; amphetamine 2 mg/kg i.p.
Procedure: Amphetamine (2 mg/kg) is injected intraperitoneally into groups of 6 rats 30 minutes after the administration of CRL 41 224.

mice [17] = assay: motility reduced by hypoxic aggression; type: in vivo, mouse; settings: i.p., 8, 32 and especially 128 mg/kg
Procedure: Half an hour after they have received CRL 41 224, the mice (10 per dose, 20 control animals) are subjected to acute hypobaric anoxia [pressure reduction of 600 mm Hg (i.e. about 8×10^4 Pa) in 90 seconds; release of vacuum in 45 seconds] and are then placed in an actimeter, where their motility is recorded for 10 minutes.

Structure (SMILES): CC(=O)Nc1ccc(C(=O)C(C)N2CCN(C)CC2)cc1 (centres unmarked) [CRL 41 242, 1-(4-acetylaminophenyl)-2-(4-methylpiperazino)-propanone dihydrochloride]
- sedation (rats [1]; high doses): sedation in mice and rats
- hypothermia induced by oxotremorine (mice [2]; i.p., strong/high doses): very moderate antagonism of the hypothermia induced by oxotremorine
- overall action on the CNS (CNS; strong/high doses, dihydrochloride): sedative effects; also recorded: antidepressant effects
- effects of the stimulant type (CNS; weak doses): very discreet effects of the stimulant type
- number of punished passes in the four plate test (mice [3]; high doses): a decrease in the spontaneous motility and the number of punished passes
- spontaneous motility (mice [4]; high doses): a decrease in the spontaneous motility
- LD-0 (maximum non-lethal dose) (male mice): greater than 256 mg/kg
- LD-60 (male mice): about 500 mg/kg
- period of immobility of mice forcibly immersed (mice [5]; strong/high doses): a slight reduction in the period of immobility
- immunological properties, overall (immunological properties): beneficial immunomodulating effects; also recorded: particularly valuable as an immunostimulant substance
- pH of the aqueous solution ([6]; 0.2 g/liter): 5.0
- pH of the aqueous solution ([6]; 0.4 g/liter): 4.5
- pH of the aqueous solution ([6]; 0.8 g/liter): 4.0
- pH of the aqueous solution ([6]; 2 g/liter): 3.5
- pH of the aqueous solution ([6]; 13 g/liter): 3.0
- pH of the aqueous solution ([6]; 50 g/liter): 2.5
- pH of the aqueous solution ([6]; ≤0.05 g/liter): 5.5
- time taken for asphyxiant convulsions (and death) to occur (mice [7]; high dose): an increase in the time taken for convulsions and death to occur following asphyxiant anoxia
- duration of the sleep induced by barbital (mice [8]; strong/high doses): an increase in the duration of the sleep induced by barbital
- reactivities (mice [9]; high doses): decrease in the reactivities
- body temperature (hypothermia) (mice [9]; strong/high doses): hypothermia in mice
- sedation (mice [9]; mice, high doses): sedation in mice
- intergroup aggression (mice [10]; high doses): a reduction in the intergroup aggression

Structure (SMILES): CCNC(C)C(=O)c1ccc(NC(C)=O)cc1 (centres unmarked) [CRL 41 224, 1-(4-acetylaminophenyl)-2-ethylaminopropanone hydrochloride]
- ptosis induced by reserpine (mice [11]; 128 mg/kg): reduces the intensity of the ptosis induced by reserpine
- significance of the antagonism of hypothermia induced by reserpine (mice [11]; 32 and 128 mg/kg): significant
- hypothermia induced by reserpine (mice [11]; as from 2 mg/kg, reserpine 2.5 mg/kg i.p.): opposes the hypothermia induced by reserpine
- motor activity of mice accustomed to their enclosure (mice [12]): distinct resumption in the motor activity
- mydriasis (rats [1]; 1 mg/kg): brief mydriasis
- mydriasis, time of appearance after administration (rats [1]; 1 mg/kg): 0.5 h
- mydriasis, duration (rats [1]; 4 mg/kg): 2 h
- mydriasis, duration (rats [1]; 16 mg/kg): 3 h
- stereotypies, duration (rats [1]; 16 mg/kg): 3 h
- excitation, duration (rats [1]; 64 mg/kg): 1 h
- hyperthermia, duration (rats [1]; 64 mg/kg): 3 h
- hyperthermia, temperature change (rats [1]; 64 mg/kg): +1.5 °C
- increase in the reactivity to touch and muscular tonus, duration (rats [1]; 64 mg/kg): 3 h
- mydriasis, duration (rats [1]; 64 mg/kg): 3 h
- piloerection, duration (rats [1]; 64 mg/kg): 1 h
- stereotypies, duration (rats [1]; 64 mg/kg): 3 h
- signs of peripheral cholinergic stimulation induced by oxotremorine (mice [2]; mice, i.p.): does not modify the signs of peripheral cholinergic stimulation
- hypothermic action of oxotremorine (mice [2]; mice, i.p., 2, 8 and especially 32, 128 mg/kg, oxotremorine 0.5 mg/kg i.p.): opposes the hypothermic action of oxotremorine
- trembling induced by oxotremorine (mice [2]; mice, i.p., 8, 32 and especially 128 mg/kg): distinctly reduces the intensity of the trembling induced by oxotremorine
- overall action on the CNS (CNS; mice and rats, dose not stated, hydrochloride): antidepressant effects; also recorded: stimulant effects; also recorded: behaves as an antidepressant for the CNS
- convulsant effects of electric shock (mice [3]; 128 mg/kg): does not aggravate the convulsant effects
- lethal effects of electric shock (mice [3]; 128 mg/kg): does not modify the lethal effects of electric shock
- motor incapacity (traction) (mice [3]; 128 mg/kg): does not cause major motor incapacity
- number of punished passes (four plate test) (mice [3]; 128 mg/kg): increase in the number of punished passes
- stereotypies induced by apomorphine (rats [13]): potentiation of the stereotypies induced by apomorphine
- hypothermia induced by apomorphine (mice [14]): opposes the hypothermia induced by apomorphine
- righting behavior and stereotypy behavior (apomorphine) (mice [14]): without modifying the righting behavior and stereotypy behavior
- spontaneous motor activity (mice [4]; 8 and especially 32, 128 mg/kg): increases the spontaneous motor activity
- peripheral adrenergic stimulation, overall [15]: peripheral α-adrenergic stimulant effects
- stereotypies induced by amphetamine (rats [16]): potentiation of the stereotypies induced by amphetamine
- motor recovery after acute hypobaric anoxia (mice [17]): distinct improvement in the motor recovery
- period of immobility (forcibly immersed mice) (mice [5]; 8 and especially 32, 128 mg/kg): reduces the period of immobility
- time taken for convulsions and death to occur following asphyxiant anoxia (mice [7]; mice, gallamine triiodoethylate 32 mg/kg i.p.): does not change the time taken for convulsions and death to occur
- antagonism of the sleep induced by barbital (mice [8]; mice, 32 mg/kg): total antagonism
- duration of the sleep induced by barbital (mice [8]; mice, as from 2 mg/kg, barbital 220 mg/kg i.p.): reduces the duration of the sleep induced by barbital
- excitation, duration (mice [9]; mice, 32 mg/kg): 3 h
- excitation, duration (mice [9]; mice, 128 mg/kg): 3 h
- hyperthermia, temperature change (mice [9]; mice, 128 mg/kg): +0.9 °C
- increase in the reactivity to touch and muscular tonus, duration (mice [9]; mice, 128 mg/kg): 24 h
- moderate mydriasis, duration (mice [9]; mice, 128 mg/kg): 3 h
- forms of behavior, reactivities and variations in pupil diameter and rectal temperature (mice [9]; mice, 2 and 8 mg/kg): substantially comparable to those of the control group
- number of fights (mice [10]; 128 mg/kg): reduces the number of fights
